Results reported in PubChem BioAssay AID192 (DTP/NCI, 2004).
Where “and” joins values, the source holds several entries; their conditions need not be identical. Identical values can stand only once. Toxic doses and inconclusive results are not listed. The calls were made as follows: active = survival T/C of 150% or more; inactive = T/C below 125% in these data.

Tested on: BDF1 mice, B16 melanoma ip, median survival T/C
Assay: NCI In Vivo Anticancer Drug Screen. Data for tumor model B16 Melanoma (intraperitoneal) in B6D2F1 (BDF1) mice
Settings: endpoint: median survival time, higher = longer survival
Method in brief: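 The ratio T/C compares compound-treated mice with vehicle-treated controls, using survival or tumor size as the endpoint in a transplantable tumor model.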

[1] = dose: 50.0 mg/kg/injection, schedule: Q01DX009 (ip), vehicle: saline with Tween-80
[2] = dose: 100.0 mg/kg/injection, schedule: Q01DX009 (ip), vehicle: saline with Tween-80
[3] = dose: 200.0 mg/kg/injection, schedule: Q01DX009 (ip), vehicle: saline with Tween-80
[4] = dose: 400.0 mg/kg/injection, schedule: Q01DX009 (ip), vehicle: saline with Tween-80
[5] = dose: 25.0 mg/kg/injection, schedule: Q01DX009 (ip), vehicle: saline with Tween-80
[6] = dose: 6.25 mg/kg/injection, schedule: Q01DX009 (ip), vehicle: saline with Tween-80
[7] = dose: 12.5 mg/kg/injection, schedule: Q01DX009 (ip), vehicle: saline with Tween-80

Measured: T/C

N#CC1CS(=O)(=O)C1
inactive: dose: 25.0 mg/kg/injection, schedule: Q04DX003 (ip), vehicle: saline with Tween-80 104 % of control | dose: 50.0 mg/kg/injection, schedule: Q04DX003 (ip), vehicle: saline with Tween-80 98 % of control | dose: 100.0 mg/kg/injection, schedule: Q04DX003 (ip), vehicle: saline with Tween-80 99 % of control and 113 % of control

C/C(=N\NC(N)=O)C1=C(O)C(C(C)C)NC1=O (stereo not given)
inactive: [1] 91 % of control | [2] 86 % of control | [3] 91 % of control | [4] 91 % of control

O=C1C=C(N2CC2)C(=O)C(N2CC2)=C1N1CC1
inactive: dose: 1.0 micrograms/kg/injection, schedule: Q01DX009 (ip), vehicle: saline 111 % of control | dose: 3.0 micrograms/kg/injection, schedule: Q01DX009 (ip), vehicle: saline 109 % of control | dose: 6.0 micrograms/kg/injection, schedule: Q01DX009 (ip), vehicle: saline 109 % of control | dose: 12.0 micrograms/kg/injection, schedule: Q01DX009 (ip), vehicle: saline 118 % of control

NCCC(O)C(=O)NC1CC(N)C(OC2OC(CO)C(O)C(O)C2N)C(OC2OC(CO)C(O)C2O)C1O (stereo not given)
inactive: dose: 10.0 mg/kg/injection, schedule: Q01DX009 (ip), vehicle: saline 122 % of control | dose: 20.0 mg/kg/injection, schedule: Q01DX009 (ip), vehicle: saline 124 % of control

CNCCOc1ccc(Cl)cc1
inactive: [5] 103 % of control | [1] 98 % of control | [2] 101 % of control

CCOC(=O)/C=C/C(=O)NCC(N)C(=O)O (stereo not given)
inactive: dose: 6.25 mg/kg/injection, schedule: Q01DX009 (ip), vehicle: distilled water + Tween-80 96 % of control | dose: 12.5 mg/kg/injection, schedule: Q01DX009 (ip), vehicle: distilled water + Tween-80 88 % of control | dose: 25.0 mg/kg/injection, schedule: Q01DX009 (ip), vehicle: distilled water + Tween-80 104 % of control | dose: 50.0 mg/kg/injection, schedule: Q01DX009 (ip), vehicle: distilled water + Tween-80 88 % of control | dose: 100.0 mg/kg/injection, schedule: Q01DX009 (ip), vehicle: distilled water + Tween-80 98 % of control

CC(=O)N(C)O
inactive: [5] 98 % of control | [1] 107 % of control | [2] 101 % of control | [3] 103 % of control

ClCCN(CCCl)CCN1c2ccccc2Sc2ccccc21
inactive: dose: 1.56 mg/kg/injection, schedule: Q01DX009 (ip), vehicle: saline with Tween-80 105 % of control and 122 % of control | dose: 3.12 mg/kg/injection, schedule: Q04DX003 (ip), vehicle: Klucel (hydroxypropylcellulose) (HPC) 107 % of control | [6] 123 % of control | dose: 6.25 mg/kg/injection, schedule: Q04DX003 (ip), vehicle: Klucel (hydroxypropylcellulose) (HPC) 115 % of control

CC(CN(C)C)CN1c2ccccc2CCc2ccccc21 (stereo not given)
inactive: dose: 2.18 mg/kg/injection, schedule: Q01DX009 (ip), vehicle: saline 106 % of control | dose: 4.37 mg/kg/injection, schedule: Q01DX009 (ip), vehicle: saline 110 % of control | dose: 8.75 mg/kg/injection, schedule: Q01DX009 (ip), vehicle: saline 100 % of control | dose: 17.5 mg/kg/injection, schedule: Q01DX009 (ip), vehicle: saline 91 % of control

O=C(COc1ccc(Cl)cc1)Nc1ccccc1F
inactive: [5] 102 % of control | [1] 92 % of control | [2] 92 % of control

CCCC1OC(/C=C/c2ccccc2)OCC1CC (stereo not given)
inactive: [2] 110 % of control | [3] 110 % of control | [4] 98 % of control

[Cl][Pt+2][Cl].[NH-]c1cc(Cl)c(Cl)cc1[NH-]
inactive: dose: 40.0 mg/kg/injection, schedule: Q01DX009 (ip), vehicle: saline with Tween-80 114 % of control | dose: 80.0 mg/kg/injection, schedule: Q01DX009 (ip), vehicle: saline with Tween-80 118 % of control | dose: 320.0 mg/kg/injection, schedule: Q01DX009 (ip), vehicle: saline with Tween-80 113 % of control

CCc1ccccc1NC(=O)Nc1ccccc1C
inactive: dose: 100.0 mg/kg/injection, schedule: Q04DX003 (ip), vehicle: Klucel (hydroxypropylcellulose) (HPC) 87 % of control | dose: 200.0 mg/kg/injection, schedule: Q04DX003 (ip), vehicle: Klucel (hydroxypropylcellulose) (HPC) 87 % of control | dose: 400.0 mg/kg/injection, schedule: Q04DX003 (ip), vehicle: Klucel (hydroxypropylcellulose) (HPC) 87 % of control

CC1CCC2(OC1)OC1C(O)C3C4CCC5CC(OC6OC(CO)C(OC7OC(CO)C(O)C(OC8OCC(O)C(O)C8O)C7OC7OC(CO)C(O)C(OC8OC(CO)C(O)C(O)C8O)C7O)C(O)C6O)C(O)CC5(C)C4CCC3(C)C1C2C (stereo not given)
inactive: dose: 0.62 mg/kg/injection, schedule: Q01DX009 (ip), vehicle: saline 109 % of control | dose: 1.25 mg/kg/injection, schedule: Q01DX009 (ip), vehicle: saline 99 % of control | dose: 2.5 mg/kg/injection, schedule: Q01DX009 (ip), vehicle: saline 103 % of control | dose: 5.0 mg/kg/injection, schedule: Q01DX009 (ip), vehicle: saline 92 % of control

CCCCCCCCCCCC1=NCCN1
inactive: dose: 3.0 mg/kg/injection, schedule: Q01DX009 (ip), vehicle: saline with Tween-80 94 % of control | dose: 6.0 mg/kg/injection, schedule: Q01DX009 (ip), vehicle: saline with Tween-80 97 % of control | dose: 12.0 mg/kg/injection, schedule: Q01DX009 (ip), vehicle: saline with Tween-80 88 % of control

CCNC(=O)OCc1c(COC(=O)NCC)c(-c2ccc(Cl)c(Cl)c2)n2c1CCC2
inactive: [6] 122 % of control | [5] 90 % of control

Clc1ccc(Sc2ccc(Cl)cc2)cc1
inactive: [2] 101 % of control | [3] 95 % of control | [4] 93 % of control

ClC1=C(Cl)C2(Cl)C(COc3ccc(Cl)cc3)CC1(Cl)C2(Cl)Cl (stereo not given)
inactive: [7] 104 % of control | [5] 88 % of control | [1] 95 % of control

CC(C)=CCC1=C(O)c2ccccc2C(=O)C1=O
inactive: [6] 90 % of control | dose: 8.33 mg/kg/injection, schedule: Q#B X027 (ip), vehicle: water 100 % of control | [7] 90 % of control | dose: 16.66 mg/kg/injection, schedule: Q#B X027 (ip), vehicle: water 103 % of control | dose: 16.66 mg/kg/injection, schedule: Q#B X027 (sc), vehicle: water 106 % of control | dose: 25.0 mg/kg/injection, schedule: Q#A X018 (oral), vehicle: water 90 % of control | dose: 33.33 mg/kg/injection, schedule: Q#B X027 (ip), vehicle: water 100 % of control | dose: 33.33 mg/kg/injection, schedule: Q#B X027 (oral), vehicle: water 100 % of control | dose: 33.33 mg/kg/injection, schedule: Q#B X027 (sc), vehicle: water 106 % of control | [1] 88 % of control and 97 % of control | dose: 50.0 mg/kg/injection, schedule: Q#A X018 (oral), vehicle: water 86 % of control | dose: 66.66 mg/kg/injection, schedule: Q#B X027 (ip), vehicle: water 96 % of control | dose: 66.66 mg/kg/injection, schedule: Q#B X027 (oral), vehicle: water 106 % of control | dose: 66.66 mg/kg/injection, schedule: Q#B X027 (sc), vehicle: water 93 % of control | [2] 95 % of control | dose: 100.0 mg/kg/injection, schedule: Q01DX018 (oral), vehicle: water 106 % of control | dose: 100.0 mg/kg/injection, schedule: Q#A X018 (oral), vehicle: water 100 % of control | dose: 133.33 mg/kg/injection, schedule: Q#B X027 (oral), vehicle: water 120 % of control | dose: 133.33 mg/kg/injection, schedule: Q#B X027 (sc), vehicle: water 93 % of control | dose: 175.0 mg/kg/injection, schedule: Q01DX018 (oral), vehicle: water 96 % of control | dose: 175.0 mg/kg/injection, schedule: Q#A X018 (oral), vehicle: water 113 % of control | [3] 95 % of control | dose: 200.0 mg/kg/injection, schedule: Q01DX009 (ip), vehicle: saline 119 % of control | dose: 250.0 mg/kg/injection, schedule: Q01DX018 (oral), vehicle: water 106 % of control | dose: 250.0 mg/kg/injection, schedule: Q#A X018 (oral), vehicle: water 106 % of control | dose: 325.0 mg/kg/injection, schedule: Q01DX018 (oral), vehicle: water 113 % of control

CC(=O)Oc1ccc(N2C(=O)C3C(C2=O)C2c4ccccc4C3C3CCCCN32)cc1 (stereo not given) (tested in a mixture with another compound)
inactive: dose: 12.5 mg/kg/injection, schedule: Q01DX009 (ip), vehicle: water 103 % of control | dose: 25.0 mg/kg/injection, schedule: Q01DX009 (ip), vehicle: water 97 % of control | dose: 50.0 mg/kg/injection, schedule: Q01DX009 (ip), vehicle: water 104 % of control | dose: 100.0 mg/kg/injection, schedule: Q01DX009 (ip), vehicle: water 97 % of control
